Measured values published in patent US7718704B2, “Immunosuppressant compounds and compositions” (IRM LLC, priority 2004, dated 2010).

Assays:
[1] = system: peripheral blood lymphocytes; assay: Measurement of circulating lymphocytes (blood lymphocyte depletion); format: in vivo, mice (C57bl/6 male); conditions: Mus musculus, mice, oral gavage, blood collected 6 and 24 hours after administration, read-out: ED50, effective dose required displaying 50% of blood lymphocyte depletion
Method: Measurements of circulating lymphocytes: Compounds are dissolved in DMSO and diluted to obtain a final concentration of 4% DMSO (v/v, final concentration) and then further diluted in a constant volume of Tween80 25%/H2O, v/v. Tween80 25%/H2O (200 μl), 4% DMSO, and FTY720 (10 μg) are included as negative and positive controls, respectively. Mice (C57bl/6 male, 6-10 week-old) are administered 250-300 μL of compound solution orally by gavages under short isoflurane anesthesia.
Blood is collected from the retro-orbital sinus 6 and 24 hours after drug administration under short isoflurane anesthesia. Whole blood samples are subjected to hematology analysis. Peripheral lymphocyte counts are determined using an automated analyzer. Subpopulations of peripheral blood lymphocytes are stained by fluorochrome-conjugated specific antibodies and analyzed using a fluorescent activating cell sorter (Facscalibur). Two mice are used to assess the lymphocyte depletion activity of each compound screened. The result is an ED50, which is defined as the effective dose required displaying 50% of blood lymphocyte depletion.

human EDG-1 = molecular target: T1, human EDG-1 (Homo sapiens, UniProt P21453); assay: EDG-1 (S1P1) GTP [γ-35S] binding assay (SPA); format: biochemical; conditions: membranes of CHO cells expressing human EDG-1
T1 construct: c-myc (N); expressed in transfected cells; host or cells: CHO cell clones (membrane preparation)
Method: (§1) A. In vitro: A scintillation proximity assay (SPA) for measuring GTP [γ-^35S]binding to membranes prepared from CHO cells expressing human EDG/S1P receptors.
EDG-1 (S1P1) GTP [γ-^35S] binding assay: Membrane protein suspensions are prepared from CHO cell clones stably expressing a human EDG-1 N-terminal c-myc tag. Solution of test compounds ranging from 10 mM to 0.01 nM are prepared in DMSO/50 mM HCl and then diluted into assay buffer (20 mM HEPES, pH7.4, 100 mM NaCl, […], 0.1% fat free BSA). Assay buffer containing 10 mM GDP is mixed with wheat germ agglutinin-coated SPA-beads (1 mg/well) followed by the addition of human EDG-1 membrane protein suspension (10 μg/well) and test compound. The bead/membrane/compound assay components are then mixed for 10-15 minutes on a shaker at room temperature. GTP [γ-^35S] ([…]) and bead/membrane/compound assay mixture are added to individual wells of a 96 well Optiplate™(final volume 225 μl/well), sealed and incubated at room temperature for 110 to 120 minutes under constant shaking. After centrifugation (2000 rpm, 10 minutes) luminescence is measured with a TopCount™ instrument.
EC50 values are obtained by fitting the GTP [γ-^35S] binding curves (raw data) with the dose response curve-fitting tool of ORIGIN V. 6.1. […]

[2] = system: EDG-3, EDG-5, EDG-6 and EDG-8; assay: EDG-3, -5, -6 and -8 GTP [γ-35S] binding assays (selectivity versus EDG-1); format: biochemical, human
Method: as §1
Concentrations of EDG receptor expressing membranes range between 13-19 μg per well.

T1 sequence (P21453 whole entry): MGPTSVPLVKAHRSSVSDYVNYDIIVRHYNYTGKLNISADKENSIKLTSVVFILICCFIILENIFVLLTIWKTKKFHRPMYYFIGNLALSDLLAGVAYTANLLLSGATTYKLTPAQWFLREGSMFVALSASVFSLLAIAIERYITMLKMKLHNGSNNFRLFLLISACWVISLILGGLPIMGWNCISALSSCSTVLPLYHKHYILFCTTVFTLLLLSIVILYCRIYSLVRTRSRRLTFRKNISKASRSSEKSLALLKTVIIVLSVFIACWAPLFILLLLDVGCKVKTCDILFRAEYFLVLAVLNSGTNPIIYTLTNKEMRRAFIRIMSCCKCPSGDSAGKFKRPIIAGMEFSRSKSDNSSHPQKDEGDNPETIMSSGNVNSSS

Structure (SMILES)	ED50 [1]	EC50 (human EDG-1)	selectivity for EDG-1 compared to one or more of the other receptors including EDG-3, EDG-5, EDG-6 and EDG-8 [2]
O=C(O)C1CN(Cc2ccc3c(c2)CCC/C3=N\OCc2ccc(C3CCCCC3)c(C(F)(F)F)c2)C1 [Example 2, 1-[5-(4-Cyclohexyl-3-trifluoromethyl-benzyloxyimino)-5,6,7,8-tetrahydro-naphthalen-2-ylmethyl]-azetidine-3-carboxylic acid]	0.2 mg/kg		
O=C(O)CCNCc1ccc2c(c1)CCC/C2=N\OCc1ccc(C2CCCCC2)c(C(F)(F)F)c1 [Example 1, 3-{[5-(4-Cyclohexyl-3-trifluoromethyl-benzyloxyimino)-5,6,7,8-tetrahydro-naphthalen-2-ylmethyl]-amino}-propionic Acid]		0.78 nM	at least 1000 fold
